How the values were obtained:
[1] = tested on: tissue factor mRNA (TF mRNA); assay: Northern blot of tissue factor mRNA in human vascular smooth muscle cells; format: cell-based; settings: thrombin 3 U/ml for 4 hours
Method: The cells are human vascular smooth muscle cells equivalent to the cells used in the above experiment. 28S rRNA is loaded on as the internal standard. Human TF cDNA was used as the probe. The cells were in each case treated without and with thrombin (3 U/ml) for 4 hours.

[2] = tested on: human vascular smooth muscle cells (HAOSMC); assay: procoagulant activity of human vascular smooth muscle cells (thrombin formation in recalcified platelet-poor plasma); format: cell-based; settings: additional administration of thrombin; cells expressing sgk-WT or sgk-MT; effect more pronounced and more rapid with intact kinase
Method: In FIG. 1, the procoagulant activity, in % of the maximum value, is plotted against the time after recalcification. In the experiment relating to FIG. 1, the procoagulant activity of human vascular smooth muscle cells (HAOSMC) was measured by measuring thrombin formation during the coagulation process in recalcified blood platelet-poor plasma (PPP) (Beguin S, Lidhout T, Hemker H C: Throm. Haemost. 61: 25-29, […]). For this, confluent vascular smooth muscle cells were kept for 24 hours in serum-free medium, then washed three times in HEPES-tyrode solution, and then incubated with human PPP. The formation of thrombin was induced by adding 16.7 mM CaCl2 to the incubation medium. In each case 20 μl of the supernatant were removed every one to two minutes and the formation of thrombin in the removed volume was determined using the dye S-2238 (Haemochrom Diagnostica). The optical density was determined at 405 nm in a spectrophotometer (Uvikon, Contron-instruments).

thrombin
transcription of the tissue factor mRNA ([1]; cells containing active SGK (W) as compared with control cells): upregulated
transcription of the tissue factor mRNA ([1]; cells containing inactive SGK mutant (M)): reduced
increase in procoagulant activity, in % of the maximum value, against time after recalcification [2]: accelerated

Source: US20120149765A1, “SGK1 AS DIAGNOSTIC AND THERAPEUTIC TARGET” (priority 2003, published 2012)
